# Experimental data: patent US20220362182A1, “METHODS FOR REVERSING HEPATIC STEATOSIS” (BRIGHTSEED, INC., priority 2020, published 2022)
# How the values were obtained:
# dihydroceramides = test: lipidomic analysis of livers from mice injected IP; format: in vivo, mouse; conditions: livers from mice injected IP for 2 weeks
# Protocol: Ceramides and dihydroceramides were measured in the UCSD Lipidomics Core Facility as previously described (Quehenberger et al.). Briefly, samples were extracted using the butanol: methanol (BUME) method. The lipid layer was collected and run on a Thermo-Vanquish UPLC (Thermo Scientific) with a Cortecs T3 (C18), 2.1 mm×150 mm; 1.8 uT3 column and a binary solvent system. Mass spectrometry employed a Thermo Q Exactive instrument with MS/MS data dependent acquisition scan mode and LipidSearch software (Thermo Fisher Scientific).
# [1] = format: in vivo; conditions: mice, 30, 60, 120 and 240 mg/kg bid for 3 days, IP
# Protocol: For dose response experiments, mice were injected intraperitoneally with 10% DMSO as vehicle control or 4 different doses of NCT (30, 60, 120 and 240 mg/kg of body weight) dissolved in 10% DMSO. Mice received 2 doses per day with a 5 h interval between injections for 3 days. To test the effect of NCT (Sundia MediTech Company, Ltd., Custom synthesis), 200 mg/kg was injected IP bid for 14 days. On day 15, mice received a final dose of NCT followed by IP injection with 3 g/kg dextrose. One h later, blood samples were collected and mice were euthanized using pentobarbital. Total mouse, liver and epididymal fat pad weights were measured. Dissected liver samples were washed in cold PBS, cut into small pieces and distributed for analyses. For RNA isolation and ELISA, liver samples were snap frozen using liquid nitrogen and stored at −80° C. For histomorphometry and immunofluorescence analysis, liver samples were fixed in 4% of cold PFA and processed for histology. All animal experiments were approved by the Institutional Animal Care and Use Committee (IACUC) of the Sanford Burnham Prebys Medical Discovery Institute in accordance with national regulations.
# Having established that NCT reduces the level of stored fat in cells in vitro, it was of interest to determine its effect in vivo. […]
smiles,measurement,setting,value
"O=C(/C=C/c1ccc(O)c(O)c1)NCCc1ccc(O)cc1 [NCT, N-trans-caffeoyltyramine]",decrease in ceramide/dihydroceramide ratio in liver,dihydroceramides,evident as well
same,tolerability,[1],well tolerated
